According to US20240158438A1, “POLYPEPTIDE COMPOUND AND APPLICATION THEREOF” (CHENGDU SINTANOVO BIOTECHNOLOGY CO., LTD., priority 2021, published 2024):
Starred links: 1 amine or outer side, 2 acyl side, 3 side chain; linkers in the order of their positions; H or OH if unused. Non-standard residues stand in square brackets, D forms with d. Residues, ends and D or L forms follow the SMILES beside them. *: point of attachment. X6 = O=C(C1[C@H]2CC[C@H](C2)N1[*:1])[*:2]; X5 = NC12CC3CC(C1)CC(CC(=O)*)(C3)C2; dBta = N[C@H](Cc1csc2ccccc12)C(=O)O; dCit = NC(=O)NCCC[C@@H](N)C(=O)O; dTle = CC(C)(C)[C@@H](N)C(=O)O; Tle = CC(C)(C)[C@H](N)C(=O)O; dNle = CCCC[C@@H](N)C(=O)O; Nle = CCCC[C@H](N)C(=O)O; Api = NC1(C(=O)O)CCNCC1; X4 = O=C([C@H]1CNCCO1)*

Molecular target: GHSR-1a (Homo sapiens (Human), UniProt Q92847)
Sequence (Q92847 whole entry): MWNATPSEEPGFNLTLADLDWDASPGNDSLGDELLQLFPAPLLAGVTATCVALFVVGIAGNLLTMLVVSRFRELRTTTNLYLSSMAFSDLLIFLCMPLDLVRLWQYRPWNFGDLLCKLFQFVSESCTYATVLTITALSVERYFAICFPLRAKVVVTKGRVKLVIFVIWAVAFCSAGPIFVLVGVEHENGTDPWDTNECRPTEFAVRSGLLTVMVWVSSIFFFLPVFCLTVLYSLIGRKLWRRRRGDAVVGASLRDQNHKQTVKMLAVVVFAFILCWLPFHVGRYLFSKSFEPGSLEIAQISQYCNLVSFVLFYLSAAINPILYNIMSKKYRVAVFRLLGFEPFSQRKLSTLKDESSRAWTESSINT
Test: Agonistic activity for GHSR-1a, FLIPR calcium assay
Type: cell-based
Conditions: agonist activity assay, Flp In-CHO-GHSR Stable Pool cells, FLIPR calcium 6 kit; read-out: The activity (IC50) of polypeptide compounds for GHSR-1a
Source text: The use of recombinant expression of GHSR provides several advantages; for example, the receptor can be expressed in a determined cell system, so that it is easier to distinguish between the reactions of the compounds with GHSR and the reactions with other receptors. For example, cell lines such as HEK293, COS7 and CHO that […] can be used to express GHSR, and the same cell lines without expression vectors are used as controls.
The activity of GHSR-1a can be measured using different techniques, for example, by detecting the change in the intracellular conformation of GHSR, the change in G-protein coupling activity, and/or the change in intracellular messengers. Techniques such as measuring intracellular Ca^2+ are preferably used to measure the activity of GHSR-1a. Examples of techniques known in the art that can be used to measure Ca^2+ include the use of FLIPR® calcium ion assay kits, among others. The FLIPR® calcium ion assay kits use a calcium ion sensitive indicator and a masking dye to ensure that a researcher carries out high-sensitivity fluorescent screening for G protein-coupled receptors, ion channels and other calcium ion sensitive targets. This experiment used FLIPR calcium 6 assay kits and FLIPR calcium 6-QF assay kits.
• a) Cell line: Flp In-CHO-GHSR Stable Pool; • b) Complete medium: F12K+10% fetal bovine serum+1×penicillin-streptomycin (PS)+600 μg/mL hygromycin B; • c) Cell seeding medium: F12K+10% fetal bovine serum. • d) Assay buffer: 1× HBSS+20 mM HEPES. • e) […] component A: Assay buffer and component A were left at room temperature (RT), 10 mL of buffer was added to component A, and the mixture was vortexed for 1-2 min and stored at −20° C.
• a) Compound stock solutions: the powders from in-house synthesis were made into 10 mM stock solutions in DMSO according to the standard protocol. • b) Compound storage: all compounds in DMSO were stored in room temperature desiccators for short-term storage (at most 4 months). The remaining compounds were left at −20 ° C. for long-term storage.
• a) Flp In-CHO-GHSR Stable Pool cells were cultured in complete medium. • b) The cells were placed in […] cell seeding medium in a 384-well cell culture plate (Corning, 3764) at 7k cells/well and cultured overnight at 37° C. with 5% CO2. • c) 20× component A was thawed at room temperature, diluted with assay buffer to 2×, and left at RT. • d) The Petri dish was taken out of the incubator and equilibrated at room temperature for 10 min. The medium was changed to […]. After the final wash, 20 μL of buffer was kept in each well, 20 μL of 2× component A was then added to each well, and the plate was incubated at 37° C. for 3-5 s. • e) 10 μL of 5× compound was added to the 384-well cell culture plate, and data collection was immediately performed using FLIPR Tetra.
• 1) Z′ factor=1−3×(SDMax+SDMin)/(MeanMax−MeanMin); • 2) CVMax=(SDMax/MeanMax)×100%; • 3) CVMin=(SDMin/MeanMin)×100%; • 4) S/B=Singal/Background; • 5) Calculation formula for IC50: • Y=Bottom+(Top−Bottom)/(1+10^((LogIC50−X)×HillSlope)) • X: log value of compound concentration; Y: Activation % or Inhibition %

| Compound | IC50 |
| --- | --- |
| NC(=O)NCCC[C@@H](N)C(=O)N[C@H](Cc1csc2ccccc12)C(=O)N[C@H](Cc1c[nH]c2ccccc12)C(=O)N[C@@H](Cc1ccccc1)C(=O)NC1(C(N)=O)CCNCC1 [Compound 1] (H-[dCit][dBta][dW]F[Api]-NH2) | 150 nM |
| NCCCC[C@@H](N)C(=O)N[C@H](Cc1csc2ccccc12)C(=O)N[C@H](Cc1c[nH]c2ccccc12)C(=O)N[C@@H](Cc1ccccc1)C(=O)NC1(C(N)=O)CCNCC1 [Compound 4] (H-[dK][dBta][dW]F[Api]-NH2) | 1120 nM |
| NCCCC[C@H](N)C(=O)N[C@H](Cc1csc2ccccc12)C(=O)N[C@H](Cc1c[nH]c2ccccc12)C(=O)N[C@@H](Cc1ccccc1)C(=O)NC1(C(N)=O)CCNCC1 [Compound 5] (H-K[dBta][dW]F[Api]-NH2) | > 1000 nM |
| CC(=O)N[C@H](CCCNC(N)=O)C(=O)N[C@H](Cc1csc2ccccc12)C(=O)N[C@H](Cc1c[nH]c2ccccc12)C(=O)N[C@@H](Cc1ccccc1)C(=O)NC1(C(N)=O)CCNCC1 [Compound 6] (Ac-[dCit][dBta][dW]F[Api]-NH2) | > 1000 nM |
| CC(=O)N[C@H](CCCCN)C(=O)N[C@H](Cc1csc2ccccc12)C(=O)N[C@H](Cc1c[nH]c2ccccc12)C(=O)N[C@@H](Cc1ccccc1)C(=O)NC1(C(N)=O)CCNCC1 [Compound 7] (Ac-[dK][dBta][dW]F[Api]-NH2) | 935 nM |
| CC(=O)N[C@@H](CCCCN)C(=O)N[C@H](Cc1csc2ccccc12)C(=O)N[C@H](Cc1c[nH]c2ccccc12)C(=O)N[C@@H](Cc1ccccc1)C(=O)NC1(C(N)=O)CCNCC1 [Compound 8] (Ac-K[dBta][dW]F[Api]-NH2) | > 1000 nM |
| N=C(N)NCCC[C@@H](N)C(=O)N[C@H](Cc1csc2ccccc12)C(=O)N[C@H](Cc1c[nH]c2ccccc12)C(=O)N[C@@H](Cc1ccccc1)C(=O)NC1(C(N)=O)CCNCC1 [Compound 9] (H-[dR][dBta][dW]F[Api]-NH2) | 101 nM |
| CC(=O)NCCCC[C@@H](N)C(=O)N[C@H](Cc1csc2ccccc12)C(=O)N[C@H](Cc1c[nH]c2ccccc12)C(=O)N[C@@H](Cc1ccccc1)C(=O)NC1(C(N)=O)CCNCC1 [Compound 10] (H-[dK](Ac)[dBta][dW]F[Api]-NH2) | 223 nM |
| CC(C)(C)[C@@H](N)C(=O)N[C@H](Cc1csc2ccccc12)C(=O)N[C@H](Cc1c[nH]c2ccccc12)C(=O)N[C@@H](Cc1ccccc1)C(=O)NC1(C(N)=O)CCNCC1 [Compound 17] (H-[dTle][dBta][dW]F[Api]-NH2) | 31.1 nM |
| CC(C)(C)[C@H](N)C(=O)N[C@H](Cc1csc2ccccc12)C(=O)N[C@H](Cc1c[nH]c2ccccc12)C(=O)N[C@@H](Cc1ccccc1)C(=O)NC1(C(N)=O)CCNCC1 [Compound 18] (H-[Tle][dBta][dW]F[Api]-NH2) | 23.5 nM |
| CCCC[C@@H](N)C(=O)N[C@H](Cc1csc2ccccc12)C(=O)N[C@H](Cc1c[nH]c2ccccc12)C(=O)N[C@@H](Cc1ccccc1)C(=O)NC1(C(N)=O)CCNCC1 [Compound 19] (H-[dNle][dBta][dW]F[Api]-NH2) | 42.6 nM |
| CCCC[C@H](N)C(=O)N[C@H](Cc1csc2ccccc12)C(=O)N[C@H](Cc1c[nH]c2ccccc12)C(=O)N[C@@H](Cc1ccccc1)C(=O)NC1(C(N)=O)CCNCC1 [Compound 20] (H-[Nle][dBta][dW]F[Api]-NH2) | 57.4 nM |
| NC(=O)C1(NC(=O)[C@H](Cc2ccccc2)NC(=O)[C@@H](Cc2c[nH]c3ccccc23)NC(=O)[C@@H](Cc2csc3ccccc23)NC(=O)[C@H]2CNCCO2)CCNCC1 [Compound 27] (X4-[dBta][dW]F[Api]-NH2) | 32.8 nM |
| NC(=O)C1(NC(=O)[C@H](Cc2ccccc2)NC(=O)[C@@H](Cc2c[nH]c3ccccc23)NC(=O)[C@@H](Cc2csc3ccccc23)NC(=O)CC23CC4CC(CC(N)(C4)C2)C3)CCNCC1 [Compound 28] (X5-[dBta][dW]F[Api]-NH2) | 54.1 nM |
| NC(=O)C1(NC(=O)[C@H](Cc2ccccc2)NC(=O)[C@@H](Cc2c[nH]c3ccccc23)NC(=O)[C@@H](Cc2csc3ccccc23)NC(=O)C2N[C@@H]3CC[C@H]2C3)CCNCC1 (some centres unmarked) [Compound 29] (H-[X6][dBta][dW]F[Api]-NH2) | 13.3 nM |
| NCCCC[C@@H](NC(=O)[C@H](Cc1ccccc1)NC(=O)[C@@H](Cc1c[nH]c2ccccc12)NC(=O)[C@@H](Cc1csc2ccccc12)NC(=O)[C@H](N)CCCNC(N)=O)C(N)=O [Compound 31] (H-[dCit][dBta][dW]F[dK]-NH2) | 20.8 nM |
| NCCCC[C@@H](N)C(=O)N[C@H](Cc1csc2ccccc12)C(=O)N[C@H](Cc1c[nH]c2ccccc12)C(=O)N[C@@H](Cc1ccccc1)C(=O)N[C@H](CCCCN)C(N)=O [Compound 34] (H-[dK][dBta][dW]F[dK]-NH2) | 78.4 nM |
| NCCCC[C@H](N)C(=O)N[C@H](Cc1csc2ccccc12)C(=O)N[C@H](Cc1c[nH]c2ccccc12)C(=O)N[C@@H](Cc1ccccc1)C(=O)N[C@H](CCCCN)C(N)=O [Compound 35] (H-K[dBta][dW]F[dK]-NH2) | 102 nM |
| CC(=O)N[C@H](CCCNC(N)=O)C(=O)N[C@H](Cc1csc2ccccc12)C(=O)N[C@H](Cc1c[nH]c2ccccc12)C(=O)N[C@@H](Cc1ccccc1)C(=O)N[C@H](CCCCN)C(N)=O [Compound 36] (Ac-[dCit][dBta][dW]F[dK]-NH2) | 122 nM |
| CC(=O)N[C@H](CCCCN)C(=O)N[C@H](Cc1csc2ccccc12)C(=O)N[C@H](Cc1c[nH]c2ccccc12)C(=O)N[C@@H](Cc1ccccc1)C(=O)N[C@H](CCCCN)C(N)=O [Compound 37] (Ac-[dK][dBta][dW]F[dK]-NH2) | 291 nM |
| CC(=O)N[C@@H](CCCCN)C(=O)N[C@H](Cc1csc2ccccc12)C(=O)N[C@H](Cc1c[nH]c2ccccc12)C(=O)N[C@@H](Cc1ccccc1)C(=O)N[C@H](CCCCN)C(N)=O [Compound 38] (Ac-K[dBta][dW]F[dK]-NH2) | 400 nM |
| N=C(N)NCCC[C@@H](N)C(=O)N[C@H](Cc1csc2ccccc12)C(=O)N[C@H](Cc1c[nH]c2ccccc12)C(=O)N[C@@H](Cc1ccccc1)C(=O)N[C@H](CCCCN)C(N)=O [Compound 39] (H-[dR][dBta][dW]F[dK]-NH2) | 272 nM |
| CC(=O)NCCCC[C@@H](N)C(=O)N[C@H](Cc1csc2ccccc12)C(=O)N[C@H](Cc1c[nH]c2ccccc12)C(=O)N[C@@H](Cc1ccccc1)C(=O)N[C@H](CCCCN)C(N)=O [Compound 40] (H-[dK](Ac)[dBta][dW]F[dK]-NH2) | 510 nM |
| NCCCC[C@@H](NC(=O)[C@H](Cc1ccccc1)NC(=O)[C@@H](Cc1c[nH]c2ccccc12)NC(=O)[C@@H](Cc1csc2ccccc12)NC(=O)CN)C(N)=O [Compound 41] (H-G[dBta][dW]F[dK]-NH2) | 31.4 nM |
| C[C@@H](N)C(=O)N[C@H](Cc1csc2ccccc12)C(=O)N[C@H](Cc1c[nH]c2ccccc12)C(=O)N[C@@H](Cc1ccccc1)C(=O)N[C@H](CCCCN)C(N)=O [Compound 42] (H-[dA][dBta][dW]F[dK]-NH2) | 40.1 nM |
| CC(C)[C@@H](N)C(=O)N[C@H](Cc1csc2ccccc12)C(=O)N[C@H](Cc1c[nH]c2ccccc12)C(=O)N[C@@H](Cc1ccccc1)C(=O)N[C@H](CCCCN)C(N)=O [Compound 43] (H-[dV][dBta][dW]F[dK]-NH2) | 22.3 nM |
| CC(C)C[C@@H](N)C(=O)N[C@H](Cc1csc2ccccc12)C(=O)N[C@H](Cc1c[nH]c2ccccc12)C(=O)N[C@@H](Cc1ccccc1)C(=O)N[C@H](CCCCN)C(N)=O [Compound 44] (H-[dL][dBta][dW]F[dK]-NH2) | 13.5 nM |
| CCCC[C@@H](N)C(=O)N[C@H](Cc1csc2ccccc12)C(=O)N[C@H](Cc1c[nH]c2ccccc12)C(=O)N[C@@H](Cc1ccccc1)C(=O)N[C@H](CCCCN)C(N)=O [Compound 49] (H-[dNle][dBta][dW]F[dK]-NH2) | 59.4 nM |
| CCCC[C@H](N)C(=O)N[C@H](Cc1csc2ccccc12)C(=O)N[C@H](Cc1c[nH]c2ccccc12)C(=O)N[C@@H](Cc1ccccc1)C(=O)N[C@H](CCCCN)C(N)=O [Compound 50] (H-[Nle][dBta][dW]F[dK]-NH2) | 67.2 nM |
